Measured values: PubChem BioAssay (NCI)
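Protocol summary: plate cells (96-well), add compound at 5 concentrations, incubate 48 h, interpolate endpoints linearly. The concentration for full growth arrest is given as TGI.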

Columns and labels:
Assay in all cases: NCI anticancer screen, dose series, 48 h
A549 NSCLC = system: A549 NSCLC
BT-549 breast = system: BT-549 breast
COLO 205 colon = system: COLO 205 colon
EKVX NSCLC = system: EKVX NSCLC
IGROV1 ovarian = system: IGROV1 ovarian
OVCAR-3 ovarian = system: OVCAR-3 ovarian
RPMI-8226 leukemia = system: RPMI-8226 leukemia
SF-539 CNS = system: SF-539 CNS
UACC-257 melanoma = system: UACC-257 melanoma
HOP-92 NSCLC = system: HOP-92 NSCLC

Row | Compound | TGI (A549 NSCLC) [µM] | TGI (BT-549 breast) [µM] | TGI (COLO 205 colon) [µM] | TGI (EKVX NSCLC) [µM] | TGI (IGROV1 ovarian) [µM] | TGI (OVCAR-3 ovarian) [µM] | TGI (RPMI-8226 leukemia) [µM] | TGI (SF-539 CNS) [µM] | TGI (UACC-257 melanoma) [µM] | TGI (HOP-92 NSCLC) [µM]
1 | COC(=O)N[C@H](C(=O)O)C(C)O[Si](C)(C)C(C)(C)C (some centres undefined) | > 100 | > 100 | > 100 | > 100 | > 100 | > 100 | > 100 | > 100 | > 100 | 
2 | O=C(c1ccc(Cl)cc1)N(C(=S)N1CCN(c2ccccn2)CC1)C1CCCCC1 | > 100 |  | > 100 |  | > 100 | > 100 | > 100 | > 100 | > 100 | > 100
3 | CCCCCCCCCCCCCCCCOP(=O)(O)OCC(N)C(=O)O (centres undefined) | 53.1 |  | 38.1 | > 100 | 34.7 | 41.1 | 47.9 | 39.8 | > 100 | 38.4
4 | O=C(c1ccccc1)C1S(=O)(=O)OCCOS1(=O)=O | > 100 |  | > 100 | > 100 | > 100 | > 100 | > 100 | > 100 | > 100 | > 100
5 | CC(=O)Oc1c2c(c3n(c1=O)CCCC3)C(=O)N(c1ccccc1)C2=O | > 100 | > 100 | > 100 | > 100 | > 100 | > 100 |  | > 100 |  | > 100
6 | O=c1ccn(C2OC(CO)C(O)C2F)c(=O)n1Cc1ccccc1 (centres undefined) | > 100 |  | > 100 | > 100 | > 100 | > 100 | > 100 | > 100 | > 100 | 
7 | COc1ccc2c3c([nH]c2c1)CCN(CCCC(=O)c1ccc(F)cc1)C3 | 32.1 |  | 25.5 | 25.8 | 32.7 | 32.9 | 37.3 | 22.3 | 31.7 | 
8 | CC(O)(P(=O)(O)O)P(=O)(O)OCC(O)CN1CCOCC1 (centres undefined) | > 100 | > 100 | > 100 | > 100 | > 100 |  | > 100 | > 100 | > 100 | > 100
9 | O=C(O)c1cnc(-n2[nH]c3c(c2=O)CCCC3)[nH]c1=O | > 100 | > 100 | > 100 | > 100 | > 100 |  | > 100 | > 100 | > 100 | > 100
10 | CCOC(=O)/C(=C/c1ccc(C(=O)OC)cc1)N(CC)CC | > 100 |  | > 100 | > 100 | > 100 | 60 | > 100 | 60.1 | > 100 | > 100
11 | CC(C)=CCc1[nH]c2ccccc2c1C1=C(O)C(=O)C(c2c(CC=C(C)C)[nH]c3ccccc23)=C(O)C1=O | 11.2 | 1.59 | 3.07 | 7.59 | 3.45 | 3.92 |  |  | 6.95 | 4.04
